The subject of one test is serum IgG1. Nature of the test: Peptoid ELISA, IgG1 subclass detection. Type of test: binding, human. Here is the method:
(§1) Peptoid compounds were immobilized onto maleimide-activated 96-well plates (Pierce Biotechnology, Rockford, Ill.) by dissolving them to 0.03-0.05 mM in a 0.1 M sodium phosphate, 0.15 M sodium chloride, 10 mM EDTA solution adjusted to pH 7.2 and incubating with shaking for 3 hrs at RT. Plates were washed with PBST and blocked with a 5% goat serum (Thermo Scientific, Rockford, Ill.) in PBST solution for 1 hr at RT. Plates were washed again and incubated with target (serum) samples diluted in blocking buffer (1:1 PBST-1% BSA and SuperBlock) for 2 hrs at RT. After washing, plates were incubated with Goat anti-Human IgG-Fc-HRP conjugate (Bethyl Laboratories, Montgomery, Tex.) diluted 1:30,000 in PBST-1% BSA or mouse anti-human IgG1 (hinge)-HRP conjugate (SouthernBiotech, Birmingham, Ala.) diluted 1:1000 in PBST-1% BSA for 30 min at RT. After another wash, plates were incubated in TMB substrate for 16 min at RT and stopped with 2M H2SO4. Plates were read at 450 nm. All samples were run in duplicate, and every assay contained ASD and TD serum pool samples to serve as internal controls. Results for individual samples were assessed as ratios to the ASD serum pool so as to control for plate-to-plate variation.
In general terms: ELISA stands for enzyme-linked immunosorbent assay.

For a further test, the system named is serum IgG. Nature of the test: Peptoid ELISA, total IgG detection with serum pools. It is filed as binding, human. As to conditions: pooled serum of 10 TD males vs 10 ASD males. As for the experimental part: as §1
Using the same two serum pools as used during screening, the “hit” peptoids were then tested by ELISA for their ability to bind IgG from the two pools. […]

Square brackets hold non-standard residues; d marks the D form. Peptide text beside a SMILES is read from it. ξ: configuration not given here. N(3,4-(MeO)2phenethyl)Gly = COc1ccc(CCNCC(=O)O)cc1OC; Gly(N-(CH2)3OMe) = COCCCNCC(=O)O; Gly(N-cHex) = O=C(O)CNC1CCCCC1; Nleu = CC(C)CNCC(=O)O; Nme = COCCNCC(=O)O; ξC = NC(CS)C(=O)O

As to `COCCCN(CC(=O)N(CCc1ccc(OC)c(OC)c1)CC(=O)N(CC(=O)N(CC(=O)N(CCCOC)CC(=O)N(CC(=O)N(CCOC)CC(=O)NC(CS)C(N)=O)C1CCCCC1)CC(C)C)C1CCCCC1)C(=O)CNCCc1ccc(OC)c(OC)c1` (stereo not shown) [ASD1] (H-[N(3,4-(MeO)2phenethyl)Gly][Gly(N-(CH2)3OMe)][N(3,4-(MeO)2phenethyl)Gly][Gly(N-cHex)][Nleu][Gly(N-(CH2)3OMe)][Gly(N-cHex)][Nme][ξC]-NH2), the “ASD1 binding, ASD females” value in the test on serum IgG1 (ASD female serum samples, n=10) worked out at 1.76±0.81. Moreover, the “ASD1 binding, TD females” value in the test on serum IgG1 (TD female serum samples, n=20) came to 1.97±0.38. Moreover, the “ASD1 binding of IgG1 from ASD males” value with serum IgG1 (individual ASD male serum samples, n=50, 1:100 dilution, ratio of sample absorbance to control serum pool, error SEM) is reported as 1.33±0.31. Moreover, the “ASD1 binding of IgG1 from TD males” value in the test with serum IgG1 (individual TD male serum samples, n=43, 1:100 dilution, ratio of sample absorbance to control serum pool, error SEM) is reported as 2.88±0.55. Also, in the test on serum IgG1 (older adult male serum, n=53, compared with ASD and TD males), the “ASD1 binding of IgG1 from older adult males” value was “did not differ from that of the ASD males, but was significantly lower than that of the TD males”. Further, in the test with serum IgG1 (pooled serum of 10 TD males vs 10 ASD males), the “differentiation in binding between the serum pools, secondary antibody specific to IgG1 subclass” value is on record as “nearly four-fold”. Besides, the “differentiation in binding between the serum pools, total IgG” value in the test on serum IgG is “two-fold”.

Source of the values: patent publication US20180156826A1, “COMPOSITIONS AND METHODS FOR DIAGNOSIS OF AUTISM SPECTRUM DISORDER” (The Board of Regents of the University of Texas System, priority 2015, published 2018).
